Experimental data published in patent publication US20050197385A1, “Use of rotigotine for treatment or prevention of dopaminergic neuron loss” (Schwarz Pharma AG, priority 2004, published 2005).

Legend:
[1] = system: dopamine transporter (DAT) in striatum; test: Subacute MPTP model, [125I]PE2I dopamine transporter binding in striatum sections; assay type: in vivo; conditions: mouse
Procedure: Groups 1-7 were treated in the following manner: Group 1: Untreated control; Group 2: Control group treated with the excipient solution for Rotigotine and MPTP; Group 3: MPTP treatment; Group 4: MPTP treatment plus Rotigotine 0.3 mg/kg; Group 5: MPTP treatment plus Rotigotine 1.0 mg/kg; Group 6: MPTP treatment plus Rotigotine 3.0 mg/kg; Group 7: Treatment only with Rotigotine (3.0 mg/kg)
For intoxication, mice are administered 80 mg/kg of the neurotoxin 1-methyl-4-phenyl-1,2,3,6-tetrahydro-pyridine (MPTP) (in portions of 20 mg/kg at two-hour intervals, Group 3-6 in FIGS. 1 and 2), leading to a degeneration of the neurons of the substantia nigra of about 50-60% (maximum degeneration in Group 3 in FIGS. 1 and 2). Rotigotine is administered daily in doses of 0.3, 1, or 3 mg/kg each for 7 days in the so-called ‘Slow-Release-Formulation’ (see Working Example 2) (Group 4-6 in FIGS. 1 and 2). A group of MPTP treated animals (Group 3) is given Rotigotine excipient solution (see Working Example 2 without Rotigotine HCl) and serves as reference. […] PE2I ([^125I]-(E)-N(3-iodoprop-2-enyl)-2β-carboxymethyl-3β-(4′-methylphenyl)-nortropane) in phosphate buffer, pH 7.4, in order to mark the quantity of the still present dopamin transporter in striatum and thereby to indicate the quantity of functioning nerve ends.

[2] = system: neurons of the substantia nigra; test: Acute MPTP model (including apoptosis), FluoroJade stain of degenerating neurons; assay type: in vivo; conditions: mouse; for Number of degenerating neurons: FluoroJade stain
Procedure: About 16 hours before, Rotigotine is administered in doses of 0.3, 1 or 3 mg/kg each as the so-called ‘Slow-Release-Formulation’. […] After 24 hours the animals are killed and the brains fixed. The brain sections are stained with FluoroJade for identification of degenerated cells. The immunohistochemical marking of tyrosine-hydroxylase served the purpose of identification of dopaminergic neurons.

[3] = system: MPTP-treated (macaque) monkeys; test: Progressive MPTP primate model (pilot study); assay type: in vivo
Procedure: In the model used, which reflects the progressive course of the Parkinson's disease on primates, subliminal toxic doses of MPTP were injected in (macaque) monkeys for several days. The Parkinson symptoms developed in the model in a period of about 2 weeks. As soon as a certain degree of damage was reached, Rotigotine was injected daily in a formulation that built up a continuous plasma level for 24 h. The MPTP injections were stopped as soon as the motor activity was reduced by a certain degree (approx. 5 days later). The behavior of the animals was assessed on a daily basis.
At the end of the Rotigotine injection or washout phase, a group each of animals was killed and the condition of the basal ganglion was examined histologically and biochemically.

Parkinson patients = conditions: cited from earlier work
Parkinson models = conditions: in vivo; cited from earlier work

SMILES | Survival of the neurons and their nerve ends (dopamine transporter quantity in striatum) ([1]; MPTP 80 mg/kg, Rotigotine 0.3, 1 or 3 mg/kg daily for 7 days, Slow-Release-Formulation) | Dopaminergic innervation of the striatum (dopamine transporter density) ([1]; subacute phase after MPTP) | Number of degenerating neurons ([2]; MPTP excipient + Rotigotine 3.0 mg/kg (Rotigotine alone)) | Number of degenerating neurons ([2]; MPTP intoxication + Rotigotine 0.3 mg/kg) | Number of degenerating neurons ([2]; MPTP intoxication + Rotigotine 1.0 mg/kg) | Number of degenerating neurons ([2]; MPTP intoxication + Rotigotine 3.0 mg/kg) | Staining of tyrosine hydroxylase, treated versus untreated animals ([2]; acute MPTP model, 24 hours after MPTP, immunohistochemistry) | Decrease in the number of degenerated neurons after application of Rotigotine ([2]; acute MPTP model, FluoroJade, versus MPTP alone) | Number of degenerating neurons in the mesencephalon ([2]; acute phase after MPTP) | Content of pre-pro-enkephalin ([3]; basal ganglion, after the treatment and the washout phase) | Motor activity of the animals ([3]; daily Rotigotine injection, during the treatment and in the following washout phase) | Density of the nerve endings in the striatum ([3]; end of Rotigotine injection or washout phase, compared to untreated animals) | Dyskinesias (Parkinson-associated motor function disorders) (Parkinson patients; patients with prominent dyskinesias, Metman et al 2001) | UPDRS (Unified Parkinson's Disease Rating Scale) score (Parkinson patients; transdermal administration to Parkinson patients, WO 02/089777) | Activity in Parkinson models (Parkinson models)
CCCN(CCc1cccs1)C1CCc2c(O)cccc2C1 (single isomer, unassigned; (-)) [Rotigotine, (−)-5,6,7,8-Tetrahydro-6-[propyl[2-(2-thienyl)ethyl]amino]-1-naphthol] | improves the survival of the neurons and their nerve ends in dependence of the dosage | almost completely preserved or restored | 3.8 | 66.7 | 76.8 | 34.9 | does not show any difference | about 50% | reduced | tendency toward normalization | clearly improved | significantly increased | improved | improvement | –
CCCN(CCc1cccs1)[C@@H]1CCc2c(O)cccc2C1 [(R)-enantiomer] | – | – | – | – | – | – | – | – | – | – | – | – | – | – | inactive
